# Values quoted from earlier work as cited in US20250320459A1, “FUNCTIONALIZED MOLECULAR LAYERS AND SCAFFOLDS, AND METHODS OF PREPARATION AND USE THEREOF” (PURDUE RESEARCH FOUNDATION, priority 2022, published 2025).
# Target: WGA
smiles,measurement,setting,value
"CC(=O)N[C@H]1C(O)O[C@H](CO)[C@@H](O)[C@@H]1O (stereo partly drawn) [GlcNAc, N-acetyl-D-glucosamine]","KD, monovalent interactions between WGA and GlcNAc",monovalent,micromolar to millimolar range
same,"KD, multivalent interactions between WGA and GlcNAc",multivalent,nanomolar range
